These results are taken from patent US20250223404A1, “SHAPED ARTICLE COMPRISING A POLY(ARYL ETHER SULFONE) (PAES) POLYMER AND METHOD OF MAKING USING MELT PROCESSING” (Solvay Specialty Polymers USA, LLC, priority 2022, published 2025).

The pEC50 is the EC50 on a negative log10 scale, so that one unit is a factor of ten. The term EC50 denotes the concentration at which the effect is half-maximal.

SMILES strings stand for the structures. pEC50: −log10 of the molar value. Like-named read-outs stand apart in the source and are kept apart here.

This experiment addresses T1, human Estrogen receptor alpha (ERα) (Homo sapiens, UniProt P03372).
T1 construct: expressed in transfected cells; host or cells: GeneBLAzer ER-α-UAS-bla GripTite 293 cells (stably integrated)
T1 sequence (P03372 311-547 limits assumed): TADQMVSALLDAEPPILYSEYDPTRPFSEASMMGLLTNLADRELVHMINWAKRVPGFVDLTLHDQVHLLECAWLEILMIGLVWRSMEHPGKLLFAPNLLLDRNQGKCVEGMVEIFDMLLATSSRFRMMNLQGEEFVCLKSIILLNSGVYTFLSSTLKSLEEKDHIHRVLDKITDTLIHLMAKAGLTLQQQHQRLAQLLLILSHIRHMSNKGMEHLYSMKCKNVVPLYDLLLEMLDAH
Kind of experiment: GeneBLAzer Cell-Based Nuclear Receptor Assay (beta-lactamase reporter), ER-α-UAS-bla GripTite 293 cells. The following applies: for pEC50: estrogen agonist activity on ERα cells, read-out: EC50 value; for EC50: estrogen agonist activity, ER-α-UAS-bla GripTite 293 cells, monomers in DMSO, 7 to 250000 nM, read-out: EC50 (nM) response value to the estrogen receptor alpha; for estrogenic activity on ERα cells compared with BPA, BPS and BP: in words. How it is done:
The response value “EC50” was measured by using the GeneBLAzer® Cell-Based Nuclear Receptor Assay technology which uses the GeneBLAzer®.
The monomers (see Table 7) were dissolved in 100% biological-grade DMSO at a concentration of 7 to 250000 nM (nanomolar). The ER-α-UAS-bla GripTite™ 293 cells were used to measure EC50. The higher the EC50 value is, the weaker the estrogenic agonist activity is for the monomer tested.
The GeneBLAzer® ER-α-UAS-bla GripTite™ cells contain a ligand-binding domain (LBD) of the human Estrogen receptor alpha (ERα) fused to a DNA-binding domain of GAL4 plasmid stably integrated in the GeneBLAzer® UAS-bla GripTite™ cell line. The GeneBLAzer® UAS-bla GripTite™ cells stably express a beta-lactamase reporter gene under the transcriptional control of an upstream activator sequence (UAS). When an estrogenic agonist binds to the LBD of the GAL4 (DBD)-ER α (LBD) fusion protein, the protein binds to the UAS, resulting in expression of beta-lactamase.

Turning to `Oc1cccc2c(O)cccc12` [1,5-NDO, 1,5 Naphthalene diol], the negative-log EC50 (pEC50) is at most 4.52; the EC50 is over 79100 nM; the “estrogenic activity on ERα cells compared with BPA, BPS and BP” value was “much lower estrogenic activity”.

On to `Oc1cc2ccccc2cc1O` [2,3-NDO, 2,3 Napthalene diol], for which the pEC50 was at most 4.52; the EC50 was over 79100 nM; the “estrogenic activity on ERα cells compared with BPA, BPS and BP” value was “much lower estrogenic activity”.

On to `Oc1ccc2ccc(O)cc2c1` [2,7-NDO, 2,7 Napthalene diol], for which the EC50 turned out to be 32000 nM; the “estrogenic activity on ERα cells compared with BPA, BPS and BP” value is on record as “much lower estrogenic activity”.

As for `O=S(=O)(c1ccc(O)cc1)c1ccc(O)cc1` [BPS, 4,4′-dihydroxydiphenyl sulfone, reference compound], the EC50 came to 791 nM.
